Test results taken from US11566007B2, “Ras inhibitors” (Revolution Medicines, Inc., priority 2019, dated 2023).
Read-outs that look alike come from different tables or passages of the source.

Legend:
[1] = test system: NCI-H358 cells (K-Ras G12C); test: Potency assay: pERK in NCI-H358 cells; type: cell-based, human; settings: H358 KRAS G12C, read-out: pERK EC50
Procedure, shortened: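 Compounds are dosed as ten 3-fold dilutions from a 10 mM DMSO stock, in duplicate, and left on cells for 4 h at 37 °C, 5% CO2. Phospho-ERK1/2 is then quantified by AlphaLISA SureFire Ultra or In-Cell Western, and IC50 is derived from a 4-parameter sigmoid against log concentration.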

[2] = test system: NCI-H358 (K-Ras G12C); test: CellTiter-Glo cell viability assay, NCI-H358; type: cell-based, human; settings: Homo sapiens, NCI-H358, 120 h, NCI-H358, 5-day treatment; class symbols; read-out: Additional H358 Cell Viability assay data (K-Ras G12C, IC50)
Procedure, shortened: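 Luminescent viability readout on day 5 after direct compound addition to plated cells; plates sat ~30 min at room temperature before reading. Values expressed as percent of mean DMSO signal, curves fit with a four-parameter logistic model.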

[3] = target: KRAS G12S (Homo sapiens (Human), UniProt P01116+P62937, G12S); test: Ras-Raf (BRAF RBD) disruption / FRET / MOA assay, KRAS G12S; type: biochemical
Sequence of KRAS G12S (P01116-2 other isoform, or with tags, fused parts or gaps G12S): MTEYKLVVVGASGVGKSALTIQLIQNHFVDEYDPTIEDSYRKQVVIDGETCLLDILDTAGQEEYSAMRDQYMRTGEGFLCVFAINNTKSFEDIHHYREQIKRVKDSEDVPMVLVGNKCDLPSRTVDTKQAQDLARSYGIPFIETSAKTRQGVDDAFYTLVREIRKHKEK
Sequence of KRAS G12S (P62937 whole entry): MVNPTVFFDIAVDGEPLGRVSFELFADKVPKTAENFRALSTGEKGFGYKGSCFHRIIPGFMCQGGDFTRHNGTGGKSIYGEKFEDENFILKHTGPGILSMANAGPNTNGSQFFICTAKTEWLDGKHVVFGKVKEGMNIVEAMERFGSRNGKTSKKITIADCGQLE
Procedure, shortened: (§1)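 Ras:RAF disruption was scored as a fall in TR-FRET ratio relative to DMSO. Compound ranged in 3-fold steps over 10 points from 30 μM final; incubation ran 3 h at 25° C, detection antibodies a further 1.5 h. Reported as IC50.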

[4] = target: KRAS G12D (Homo sapiens (Human), UniProt P01116+P62937, G12D); test: Ras-Raf (BRAF RBD) disruption / FRET / MOA assay, KRAS G12D; type: biochemical
Sequence of KRAS G12D (P01116-2 other isoform, or with tags, fused parts or gaps G12D): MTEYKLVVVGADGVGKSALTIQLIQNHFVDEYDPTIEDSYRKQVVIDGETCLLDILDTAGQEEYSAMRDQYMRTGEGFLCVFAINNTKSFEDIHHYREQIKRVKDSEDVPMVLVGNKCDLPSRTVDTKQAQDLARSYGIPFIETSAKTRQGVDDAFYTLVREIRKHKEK
Sequence of KRAS G12D (P62937 whole entry): as the sequence (P62937 whole entry) above
Procedure, shortened: as §1

[5] = target: KRAS Q61H (Homo sapiens (Human), UniProt P01116+P62937, Q61H); test: Ras-Raf (BRAF RBD) disruption / FRET / MOA assay, KRAS Q61H; type: biochemical
Sequence of KRAS Q61H (P01116-2 other isoform, or with tags, fused parts or gaps Q61H): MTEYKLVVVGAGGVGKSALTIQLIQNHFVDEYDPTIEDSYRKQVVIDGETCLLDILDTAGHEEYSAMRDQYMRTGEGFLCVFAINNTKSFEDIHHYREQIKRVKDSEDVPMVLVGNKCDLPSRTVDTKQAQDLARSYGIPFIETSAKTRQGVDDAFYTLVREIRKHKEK
Sequence of KRAS Q61H (P62937 whole entry, canonical isoform): as the sequence (P62937 whole entry) above
Description: The purpose of this biochemical assay is to measure the ability of test compounds to facilitate ternary complex formation between a nucleotide-loaded Ras isoform and cyclophilin A; the resulting ternary complex disrupts binding to a BRAF^RBD construct, inhibiting Ras signaling through a RAF effector.
(§2) […]. Compound is present in plate wells as a 10-point 3-fold dilution series starting at a final concentration of 30 μM. After incubation at 25° C. for 3 hours, a mixture of Anti-His Eu-W1024 and anti-GST allophycocyanin is then added to assay sample wells at final concentrations of 10 nM and 50 nM, respectively, and the reaction incubated for an additional 1.5 hours. […] Compounds that facilitate disruption of a Ras:RAF complex are identified as those eliciting a decrease in the TR-FRET ratio relative to DMSO control wells.
Note—The following protocol describes a procedure for monitoring disruption of K-Ras G12C (GMP-PNP) binding to BRAF^RBD by a compound of the invention. This protocol may also be executed substituting other Ras proteins or nucleotides.
The purpose of this biochemical assay was to measure the ability of test compounds to facilitate ternary complex formation between a nucleotide-loaded K-Ras isoform and Cyclophilin A; the resulting ternary complex disrupts binding to a BRAF^RBD construct, inhibiting K-Ras signaling through a RAF effector. Data is reported as IC50 values.
as §2, with “Compound was” for “Compound is”, “allophycocyanin was” for “allophycocyanin is”, “a K-Ras:RAF” for “a Ras:RAF”, “complex were” for “complex are”

[6] = target: K-Ras G12C (Homo sapiens (Human), UniProt P01116+P62937, G12C); test: Ras-Raf (BRAF RBD) disruption / FRET / MOA assay, KRAS G12C; type: biochemical; settings: KRAS G12C; Ras-Raf disruption/FRET/MOA assay; read-out: IC50* KRAS G12C FRET data
Sequence of K-Ras G12C (P01116-2 other isoform, or with tags, fused parts or gaps G12C): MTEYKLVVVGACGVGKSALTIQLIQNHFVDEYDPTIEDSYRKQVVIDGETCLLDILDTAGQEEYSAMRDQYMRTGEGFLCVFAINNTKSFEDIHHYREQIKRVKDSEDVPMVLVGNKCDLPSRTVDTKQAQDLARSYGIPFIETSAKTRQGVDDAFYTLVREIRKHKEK
Sequence of K-Ras G12C (P62937 whole entry): as the sequence (P62937 whole entry) above
Procedure, shortened: as §1

[7] = target: K-Ras G13C (Homo sapiens (Human), UniProt P01116+P62937, G13C); test: Ras-Raf (BRAF RBD) disruption / FRET / MOA assay, KRAS G13C; type: biochemical; settings: KRAS G13C; Ras-Raf disruption/FRET/MOA assay; read-out: IC50* KRAS G13C FRET data
Sequence of K-Ras G13C (P01116-2 other isoform, or with tags, fused parts or gaps G13C): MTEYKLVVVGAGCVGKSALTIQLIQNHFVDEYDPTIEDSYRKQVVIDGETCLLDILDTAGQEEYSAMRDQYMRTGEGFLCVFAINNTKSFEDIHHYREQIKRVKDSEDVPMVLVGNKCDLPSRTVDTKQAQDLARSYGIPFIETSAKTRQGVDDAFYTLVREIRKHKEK
Sequence of K-Ras G13C (P62937 whole entry): as the sequence (P62937 whole entry) above
Procedure, shortened: as §1

[8] = target: KRAS G12V (Homo sapiens (Human), UniProt P01116+P62937, G12V); test: Ras-Raf (BRAF RBD) disruption / FRET / MOA assay, KRAS G12V; type: biochemical; settings: read-out: IC50* KRAS G12V FRET data
Sequence of KRAS G12V (P01116-2 other isoform, or with tags, fused parts or gaps G12V): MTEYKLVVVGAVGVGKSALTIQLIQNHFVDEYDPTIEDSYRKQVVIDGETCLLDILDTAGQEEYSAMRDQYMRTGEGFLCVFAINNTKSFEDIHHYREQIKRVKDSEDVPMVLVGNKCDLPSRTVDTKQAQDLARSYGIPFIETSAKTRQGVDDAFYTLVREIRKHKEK
Sequence of KRAS G12V (P62937 whole entry): as the sequence (P62937 whole entry) above
Procedure, shortened: as §1

[9] = target: KRAS WT (Homo sapiens (Human), UniProt P01116+P62937); test: Ras-Raf (BRAF RBD) disruption / FRET / MOA assay, KRAS WT; type: biochemical; settings: read-out: IC50* KRAS WT FRET data
Sequence of KRAS WT (P01116-2 other isoform, or with tags, fused parts or gaps): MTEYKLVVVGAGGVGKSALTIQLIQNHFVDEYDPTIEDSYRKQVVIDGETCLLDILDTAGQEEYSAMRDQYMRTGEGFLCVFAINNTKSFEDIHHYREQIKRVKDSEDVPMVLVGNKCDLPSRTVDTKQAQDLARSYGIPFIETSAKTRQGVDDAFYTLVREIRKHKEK
Sequence of KRAS WT (P62937 whole entry): as the sequence (P62937 whole entry) above
Procedure, shortened: as §1

[10] = target: KRAS G13D (Homo sapiens (Human), UniProt P01116+P62937, G13D); test: Ras-Raf (BRAF RBD) disruption / FRET / MOA assay, KRAS G13D; type: biochemical; settings: read-out: IC50* KRAS G13D FRET data
Sequence of KRAS G13D (P01116-2 other isoform, or with tags, fused parts or gaps G13D): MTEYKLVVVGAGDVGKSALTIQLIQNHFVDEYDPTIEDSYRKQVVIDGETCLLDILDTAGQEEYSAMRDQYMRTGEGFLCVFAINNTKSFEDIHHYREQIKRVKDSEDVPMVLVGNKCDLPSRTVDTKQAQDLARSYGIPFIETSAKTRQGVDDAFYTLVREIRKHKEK
Sequence of KRAS G13D (P62937 whole entry): as the sequence (P62937 whole entry) above
Procedure, shortened: as §1

[11] = target: NRAS G12C (Homo sapiens (Human), UniProt P01111+P62937, G12C); test: Ras-Raf (BRAF RBD) disruption / FRET / MOA assay, NRAS G12C; type: biochemical; settings: read-out: IC50* NRAS G12C FRET data
Sequence of NRAS G12C (P01111 whole entry G12C): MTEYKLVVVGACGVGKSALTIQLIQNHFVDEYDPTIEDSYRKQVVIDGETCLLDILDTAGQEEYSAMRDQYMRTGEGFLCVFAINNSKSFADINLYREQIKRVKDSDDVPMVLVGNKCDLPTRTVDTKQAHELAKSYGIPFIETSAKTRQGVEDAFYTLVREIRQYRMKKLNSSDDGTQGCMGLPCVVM
Sequence of NRAS G12C (P62937 whole entry): as the sequence (P62937 whole entry) above
Procedure, shortened: as §1

[12] = Ras-Raf disruption/FRET/MOA assay; class symbols; read-out: KRAS G12S FRET data IC50
[13] = Ras-Raf disruption/FRET/MOA assay; class symbols; read-out: KRAS G12D FRET data IC50
[14] = Ras-Raf disruption/FRET/MOA assay; class symbols; read-out: KRAS Q61H FRET data IC50

Structure (SMILES) | EC50 ([1]; Homo sapiens, NCI-H358) [nM] | IC50 [2] [nM] | IC50 ([3]; read-out: KRAS G12S FRET data IC50; Ras-Raf disruption/FRET/MOA assay; class symbols) [nM] | IC50 ([4]; read-out: KRAS G12D FRET data IC50; Ras-Raf disruption/FRET/MOA assay; class symbols) [nM] | IC50 ([5]; read-out: KRAS Q61H FRET data IC50; Ras-Raf disruption/FRET/MOA assay; class symbols) [nM] | EC50 [1] [nM] | IC50 [3, 12] [nM] | IC50 [4, 13] [nM] | IC50 [5, 14] [nM] | IC50 [6] [nM] | IC50 [7] [nM] | IC50 [8] [nM] | IC50 [9] [nM] | IC50 [10] [nM] | IC50 [11] [nM]
C=CC(=O)N1CC[C@H](C(=O)N(C)[C@H](C(=O)N[C@H]2Cc3cc(sn3)-c3ccc4c(c3)c(c(-c3cccnc3[C@H](C)OC)n4CC)CC(C)(C)COC(=O)[C@@H]3CCCN(N3)C2=O)C(C)C)C1 (atropisomer, axis not shown) [Example A277] | < 5000 | 100 to 1000 | 1000 to 10000 | > 10000 | 100 to 1000 |  |  |  |  |  |  |  |  |  | 
C=CC(=O)Nc1ncc(C(=O)N(C)[C@H](C(=O)N[C@H]2Cc3cccc(c3)-c3ccc4c(c3)c(c(-c3cccnc3[C@H](C)OC)n4CC)CC(C)(C)COC(=O)[C@@H]3CCCN(N3)C2=O)C(C)C)n1C (atropisomer, axis not shown) [Example A475] |  |  |  |  |  | < 5000 | 1000 to 10000 | > 10000 | 100 to 1000 |  |  |  |  |  | 
C=CC(=O)N1CC[C@H](C(=O)N(C)[C@H](C(=O)N[C@H]2Cc3cc(O)cc(c3)-c3ccc4c(c3)c(c(-c3c(F)cccc3CCOC)n4CC)CC(C)(C)COC(=O)[C@@H]3CCCN(N3)C2=O)C(C)C)C1 [Example A025] |  |  |  |  |  |  | 1000 to 10000 | > 10000 | 1000 to 10000 |  |  |  |  |  | 
C=CC(=O)N1CC[C@H](C(=O)N(C)[C@H](C(=O)N[C@H]2Cc3cc(O)cc(c3)-c3ccc4c(c3)c(c(-c3ccccc3N3CCOCC3)n4CC)CC(C)(C)COC(=O)[C@@H]3CCCN(N3)C2=O)C(C)C)C1 [Example A026] |  |  |  |  |  |  | > 10000 | > 10000 | 1000 to 10000 |  |  |  |  |  | 
C=CC(=O)N1CC[C@H](C(=O)N(C)[C@H](C(=O)N[C@H]2Cc3cc(O)cc(c3)-c3ccc4c(c3)c(c(-c3cccnc3)n4CC)CC(C)(C)COC(=O)[C@@H]3CCCN(N3)C2=O)C(C)C)C1 [Example A045] |  |  |  |  |  |  | 1000 to 10000 | > 10000 | 100 to 1000 |  |  |  |  |  | 
C=CC(=O)N1CC[C@H](C(=O)N(C)[C@H](C(=O)N[C@H]2Cc3cc(O)cc(c3)-c3ccc4c(c3)c(c(-c3ccc5c(c3)OCCN5C)n4CC)CC(C)(C)COC(=O)[C@@H]3CCCN(N3)C2=O)C(C)C)C1 [Example A050] |  |  |  |  |  |  | 1000 to 10000 | > 10000 | 1000 to 10000 |  |  |  |  |  | 
C=CC(=O)N1CC[C@H](C(=O)N(C)[C@H](C(=O)N[C@H]2Cc3cc(O)cc(c3)-c3cc(F)c4c(c3)c(c(-c3ccccc3CCOC)n4CC)CC(C)(C)COC(=O)[C@@H]3CCCN(N3)C2=O)C(C)C)C1 [Example A053] |  |  |  |  |  |  |  | > 10000 | 1000 to 10000 |  |  |  |  |  | 
C=CC(=O)N1CC[C@H](C(=O)N(C)[C@H](C(=O)N[C@H]2Cc3cc(O)cc(c3)-c3ccc4c(c3)c(c(-c3cccnc3N3CC(OC)C3)n4CC)CC(C)(C)COC(=O)[C@@H]3CCCN(N3)C2=O)C(C)C)C1 [Example A060] |  |  |  |  |  |  | 1000 to 10000 | > 10000 | 1000 to 10000 |  |  |  |  |  | 
C=CC(=O)N1CC[C@H](C(=O)N(C)[C@H](C(=O)N[C@H]2Cc3cc(O)cc(c3)-c3ccc4c(c3)c(c(-c3cncnc3)n4CC)CC(C)(C)COC(=O)[C@@H]3CCCN(N3)C2=O)C(C)C)C1 [Example A061] |  |  |  |  |  |  | 1000 to 10000 | > 10000 | 1000 to 10000 |  |  |  |  |  | 
C=CC(=O)N1CC[C@H](C(=O)N(C)[C@H](C(=O)N[C@H]2Cc3cc(O)cc(c3)-c3ccc4c(c3)c(c(C3=C(COC)CCCC3)n4CC)CC(C)(C)COC(=O)[C@@H]3CCCN(N3)C2=O)C(C)C)C1 [Example A064] |  |  |  |  |  |  | 100 to 1000 | > 10000 | 100 to 1000 |  |  |  |  |  | 
C=CC(=O)N1CC[C@H](C(=O)N(C)[C@H](C(=O)N[C@H]2Cc3cc(O)cc(c3)-c3ccc4c(c3)c(c(-c3cncc(COC)c3)n4CC)CC(C)(C)COC(=O)[C@@H]3CCCN(N3)C2=O)C(C)C)C1 [Example A083] |  |  |  |  |  |  | 100 to 1000 | > 10000 | 100 to 1000 |  |  |  |  |  | 
CCn1c(-c2cccnc2[C@H](C)OC)c2c3cc(ccc31)-c1cccc(c1)C[C@H](NC(=O)[C@H](C(C)C)N(C)C(=O)C1CCN(C(=O)C#C[C@@H]3CC(F)(F)CN3C)C1)C(=O)N1CCC[C@H](N1)C(=O)OCC(C)(C)C2 (stereo partly shown) [Example A526] | < 5000 | < 10 |  |  |  |  | 1000 to 10000 | > 10000 |  | 10 to 100 | 1000 to 10000 | 1000 to 10000 | 1000 to 10000 | > 10000 | 10 to 100
CCn1c(-c2cccnc2[C@H](C)OC)c2c3cc(ccc31)-c1cc(O)cc(c1)C[C@H](NC(=O)[C@H](C(C)C)N(C)C(=O)[C@H]1CCN(C(=O)/C=C/C(F)(F)F)C1)C(=O)N1CCC[C@H](N1)C(=O)OCC(C)(C)C2 [Example A527] | < 5000 | < 10 |  |  |  |  | 10 to 100 | 100 to 1000 |  | < 10 | 10 to 100 | 10 to 100 | 10 to 100 | 10 to 100 | < 10
CCn1c(-c2cccnc2[C@H](C)OC)c2c3cc(ccc31)-c1cccc(c1)C[C@H](NC(=O)[C@H](C(C)C)N(C)C(=O)[C@H]1CCN(C(=O)C#C[C@@H]3COCCN3C)C1)C(=O)N1CCC[C@H](N1)C(=O)OCC(C)(C)C2 [Example A528] | < 5000 | < 10 |  |  |  |  | 1000 to 10000 | > 10000 |  | 10 to 100 | 1000 to 10000 | 1000 to 10000 | 1000 to 10000 | > 10000 | 10 to 100
CCn1c(-c2cccnc2[C@H](C)OC)c2c3cc(ccc31)-c1cc(O)cc(c1)C[C@H](NC(=O)[C@H](C(C)C)N(C)C(=O)c1ncc(NC(=O)/C=C/CN(C)C)n1C)C(=O)N1CCC[C@H](N1)C(=O)OCC(C)(C)C2 [Example A529] | < 5000 | 10 to 100 |  |  |  |  | 100 to 1000 | 100 to 1000 |  | < 10 | < 10 | 100 to 1000 | 100 to 1000 | 100 to 1000 | < 10
CCn1c(-c2cccnc2[C@H](C)OC)c2c3cc(ccc31)-c1cccc(c1)C[C@H](NC(=O)[C@H](C(C)C)N(C)C(=O)[C@H]1CCN(C(=O)C#CC3(N(C)C)CCOC3)C1)C(=O)N1CCC[C@H](N1)C(=O)OCC(C)(C)C2 (stereo partly shown) [Example A533] | < 5000 | < 10 |  |  |  |  | 1000 to 10000 | > 10000 |  | 10 to 100 | 1000 to 10000 | 1000 to 10000 | 1000 to 10000 | > 10000 | 10 to 100
